{"source": "ChEMBL document CHEMBL4024736", "about": "“Recent progress on the treatment of Ebola virus disease with Favipiravir and other related strategies” (Bioorg Med Chem Lett, 2017)", "key": {"Ebolavirus [1]": {"test_system": "Ebolavirus", "assay": "Antiviral activity against Ebolavirus E718 infected in Vero E6 cells assessed as effective dose after 6 days by neutral red stain based microscopic method", "format": "functional, Vero C1008"}, "Ebolavirus [2]": {"test_system": "Ebolavirus", "assay": "Antiviral activity against Ebolavirus assessed as reduction in viral titer", "format": "functional", "conditions": "Orthoebolavirus"}, "[3]": {"assay": "Antiviral activity against Respiratory syncytial virus A2 infected in Hep2 cells", "format": "functional, cell-based", "conditions": "human respiratory syncytial virus, HEp-2"}, "Ebolavirus [4]": {"test_system": "Ebolavirus", "assay": "Antiviral activity against Ebolavirus E718 infected in A129 interferon alpha/beta receptor knockout immunodeficient mouse assessed as survival rate at 150 mg/kg, po administered twice daily for 14 days measured after 2 weeks post last dose relative to control", "format": "functional", "conditions": "Orthoebolavirus, 336 h"}, "Ebolavirus [5]": {"test_system": "Ebolavirus", "assay": "Antiviral activity against Ebola virus Mayinga Zaire 1976 infected in IFNAR-/- C57BL/6 mouse assessed as survival at 300 mg/kg, po administered twice daily for 13 days measured after 3 weeks", "format": "functional", "conditions": "Orthoebolavirus"}, "[6]": {"assay": "Antiviral activity against Foot-and-mouth disease virus O/JPN/2000 by plaque reduction assay", "format": "functional"}, "Ebolavirus [7]": {"test_system": "Ebolavirus", "assay": "Antiviral activity against Ebola virus Mayinga Zaire 1976 infected in IFNAR-/- C57BL/6 mouse assessed as biochemical correlates of disease at 300 mg/kg, po administered twice daily", "format": "functional"}, "Ebolavirus [8]": {"test_system": "Ebolavirus", "assay": "Antiviral activity against Ebola virus Mayinga Zaire 1976 infected in IFNAR-/- C57BL/6 mouse at 300 mg/kg, po administered twice daily measured up to 6 days post infection", "format": "functional"}}}
{"smiles": "NC(=O)c1nc(F)cnc1O", "note": "[FAVIPIRAVIR]", "values": [{"measurement": "ED", "setting": "Ebolavirus [1]", "value": 400, "unit": "µM"}, {"measurement": "IC50", "setting": "Ebolavirus [2]", "value": 67, "unit": "µM"}, {"measurement": "IC50", "setting": "[3]", "value": 41, "unit": "µg/mL"}, {"measurement": "survival at 150 mg/kg", "setting": "Ebolavirus [4]", "value": 100, "unit": "%"}, {"measurement": "survival at 300 mg/kg", "setting": "Ebolavirus [5]", "value": 100, "unit": "%"}, {"measurement": "EC50", "setting": "[6]", "value": 12, "unit": "µM"}, {"measurement": "Activity", "setting": "Ebolavirus [7]", "value": 20, "unit": "%"}, {"measurement": "Activity", "setting": "Ebolavirus [8]", "value": 100, "unit": "%"}]}
